{
  "source": "patent US5252559A",
  "about": "“His-Gly-Gly peptide and derivatives thereof for hair growth” (The Procter & Gamble Company, priority 1991, dated 1993)",
  "system": "male C3H mice",
  "assay": "C3H Mouse Model, topical study of hair growth",
  "format": "in vivo",
  "experimental": "The effect of the compounds of the present invention on hair growth is assessed using male C3H mice (Harlan Sprague Dawley, Inc., Indianapolis, Ind.) as an animal model. The mice are 52 days old at the time of first does. They are individually housed in \"shoe box\" cages (Scientific Products, Chicago, Ill.). Ten mice are used per test group.\nNot more than four hours before treatment, the animals are anesthetized with an intraperitoneal mixture of acepromazine maleate (1.6 mg/kg), xylazine (4.8 mg/kg) and ketamine hydrochloride (64 mg/kg) dosed in a saline vehicle in a total volume of 0.2 ml per 25 g mouse. The entire back of the animal is clipped closely with a small animal clipper (Wahl model 8900, Wahl Clipper Corp., Sterling, Ill.). […]\nOn days of photography, the animals are photographed prior to dosing. […] Results are expressed as the percent of shaved area responding with anagen skin, and the percent of shaved area responding with hair growth.\nA positive response, i.e., an increase of greater than 10% over control, indicates the potential of the test compound to regulate hair growth. Accordingly, when hair growth peptides as herein defined, are assessed either individually or in combination as a test compound in the C3H Mouse Model, an increase over control of at least 10%, preferably 40%, more preferably 70%, after four weeks treatment will be obtained. […]",
  "note": "Peptide text beside a SMILES is read from it.",
  "data": [
    {"smiles": "N[C@@H](Cc1c[nH]cn1)C(=O)NCC(=O)NCC(=O)O", "note": "[His-Gly-Gly, Histidyl-glycyl-glycine] (H-His-Gly-Gly-OH)", "values": [
      {"measurement": "mean percent of shaved area that is covered with hair at Day 25", "setting": "topical, 1.0% in Tris buffer/propylene glycol/glycerine (67/30/3, pH 8.0) vehicle, after 4 weeks of treatment, mean of 10 mice", "result": 44.3, "unit": "%"},
      {"measurement": "increase in hair growth", "setting": "versus vehicle control, Day 25, topical 1.0%", "result": 96, "unit": "%"}
    ]}
  ]
}
